How the values were obtained:
C57BL/6 mice = experiment: Formation of lesions of the granulomatous type after subcutaneous injection in mice; format: in vivo, mouse; conditions: s.c., adsorbed onto Alu-Gel-S
NKT cells = experiment: NKT-cell recruitment at the site of injection, Vα14-Jα281 mRNA by RT-PCR and Immunoscope; format: in vivo, mouse; conditions: C57BL/6 mice, s.c., adsorbed on Alu-Gel-S, day 7, RT-PCR, compared with Alu-Gel-S alone

SMILES: CC(=O)N[C@H]1C(O)O[C@H](CO)[C@@H](O)[C@@H]1O[C@H](C)C(=O)N[C@@H](C)C(=O)N[C@H](CCC(=O)O)C(N)=O (mixture of isomers) [MDP, muramyl-dipeptide]
- cell infiltrate at site of injection (C57BL/6 mice): produced a cellular infiltrate
- activity of NKT-cell recruitment (Vα14-Jα281 mRNA) (NKT cells): without increasing the Vα14-Jα281 mRNA

Source: US7052909B1, “Method for activating NKT cells using PIMs” (priority 1999, dated 2006)
